Tests used:
Conditions in all cases: 72 h
[1] = system: Caco-2; experiment: cell viability relative to DMSO; higher = less toxic
[2] = system: HepG2; experiment: as above
[3] = system: Vero E6; experiment: as above
[4] = system: U2OS; experiment: as above
[5] = system: Caco-2; experiment: drug sensitivity score (DSS) for viability; higher = more toxic; extreme values may be limits of the assay
[6] = system: HepG2; experiment: as above
[7] = system: Vero E6; experiment: as above
[8] = system: U2OS; experiment: as above
[9] = system: Caco-2; experiment: relative viability EC50 (midpoint between 100% and the lowest measured viability); higher = less toxic
[10] = system: HepG2; experiment: as above
[11] = system: Vero E6; experiment: as above
[12] = system: U2OS; experiment: as above
[13] = system: Calu-3; experiment: cell viability relative to DMSO; higher = less toxic
[14] = system: Calu-3; experiment: drug sensitivity score (DSS) for viability; higher = more toxic; extreme values may be limits of the assay
[15] = system: Calu-3; experiment: relative viability EC50 (midpoint between 100% and the lowest measured viability); higher = less toxic

| Compound | cell viability ([1]; 1 nM) [%] | cell viability ([1]; 10 nM) [%] | cell viability ([1]; 100 nM) [%] | cell viability ([1]; 1000 nM) [%] | cell viability ([1]; 10000 nM) [%] | cell viability ([2]; 1 nM) [%] | cell viability ([2]; 10 nM) [%] | cell viability ([2]; 100 nM) [%] | cell viability ([2]; 1000 nM) [%] | cell viability ([2]; 10000 nM) [%] | cell viability ([3]; 1 nM) [%] | cell viability ([3]; 10 nM) [%] | cell viability ([3]; 100 nM) [%] | cell viability ([3]; 1000 nM) [%] | cell viability ([3]; 10000 nM) [%] | cell viability ([4]; 1 nM) [%] | cell viability ([4]; 10 nM) [%] | cell viability ([4]; 100 nM) [%] | cell viability ([4]; 1000 nM) [%] | cell viability ([4]; 10000 nM) [%] | drug sensitivity score [5] | drug sensitivity score [6] | drug sensitivity score [7] | drug sensitivity score [8] | relative viability EC50 [9] [µM] | relative viability EC50 [10] [µM] | relative viability EC50 [11] [µM] | relative viability EC50 [12] [µM] | cell viability ([13]; 1 nM) [%] | cell viability ([13]; 10 nM) [%] | cell viability ([13]; 100 nM) [%] | cell viability ([13]; 1000 nM) [%] | cell viability ([13]; 10000 nM) [%] | drug sensitivity score [14] | relative viability EC50 [15] [µM] |
| --- | --- | --- | --- | --- | --- | --- | --- | --- | --- | --- | --- | --- | --- | --- | --- | --- | --- | --- | --- | --- | --- | --- | --- | --- | --- | --- | --- | --- | --- | --- | --- | --- | --- | --- | --- |
| CC(=O)Nc1ccc(S(=O)(=O)c2ccc(NC(C)=O)cc2)cc1 [acedapsone] | 119 | 115 | 96.2 | 108 | 92.9 | 105 | 97.3 | 86.3 | 107 | 102 | 106 | 101 | 105 | 99.5 | 98.8 | 104 | 108 | 102 | 104 | 97.4 | 0 | 0 | 0 | 0 | > 10 | > 10 | > 10 | > 10 | – | – | – | – | – | – | – |
| NS(=O)(=O)c1cc2c(cc1C(F)(F)F)NC(Cc1ccccc1)NS2(=O)=O (stereo not drawn) [bendroflumethiazide] | 96.6 | 101 | 96.9 | 99.1 | 108 | 106 | 87.1 | 98.7 | 93.3 | 98.6 | 92.4 | 94.9 | 91.7 | 92.4 | 109 | – | – | – | – | – | 0 | 0 | 0 | – | > 10 | > 10 | > 10 | – | 109 | 110 | 107 | 98.2 | 95.1 | 0 | > 10 |
| CC(C)[C@H]1C(=O)N[C@@H](CCCNC(=N)N)C(=O)NCC(=O)N[C@@H](CC(=O)O)C(=O)N[C@H](Cc2ccccc2)C(=O)N1C [cilengitide] | 98.6 | 95.4 | 96.5 | 80.5 | 41.1 | 103 | 103 | 92.6 | 116 | 103 | 98.1 | 101 | 98.8 | 79.8 | 17 | – | – | – | – | – | 5.8 | 0 | 7.7 | – | 1.39 | > 10 | 1.57 | – | 97.6 | 94.3 | 87.1 | 89.4 | 70.5 | 2.8 | – |
| Cc1cn([C@H]2O[C@@H](CO)[C@H](O)[C@H]2F)c(=O)[nH]c1=O [clevudine] | 102 | 105 | 94.4 | 108 | 87.5 | 105 | 92.7 | 104 | 95.2 | 97.1 | – | – | – | – | – | 92.4 | 102 | 101 | 98.2 | 97.2 | 0 | 0 | – | 0 | > 10 | > 10 | – | > 10 | 90.3 | 106 | 106 | 97.9 | 99.3 | 0 | > 10 |
| C=C(CC)C(=O)c1ccc(OCC(=O)O)c(Cl)c1Cl [etacrynic-acid] | 93.4 | 100 | 96.2 | 84.9 | 97 | 99.4 | 110 | 105 | 100 | 86.2 | – | – | – | – | – | 98.7 | 101 | 97.8 | 102 | 103 | 0 | 0.1 | – | 0 | > 10 | > 10 | – | > 10 | 90.3 | 94 | 97.5 | 90.5 | 106 | 0 | > 10 |
| COc1cccc(N2CCN(C3=Nc4c(F)cccc4[C@H](CC(=O)O)N3c3cc(C(F)(F)F)ccc3OC)CC2)c1 [letermovir] | 97.4 | 103 | 103 | 97.9 | 83.1 | 102 | 86.2 | 94.3 | 99.1 | 90.6 | – | – | – | – | – | 105 | 106 | 95.8 | 105 | 94.9 | 0.6 | 0 | – | 0 | > 10 | > 10 | – | > 10 | 99.6 | 96 | 93.9 | 101 | 113 | 0 | > 10 |
| COC(=O)c1ccccc1O [methyl-salicylate] | 103 | 99.4 | 101 | 81 | 101 | 112 | 101 | 102 | 90.9 | 102 | 110 | 104 | 102 | 102 | 97.3 | 98.4 | 97.2 | 101 | 101 | 102 | 0 | 0 | 0 | 0 | > 10 | > 10 | > 10 | > 10 | – | – | – | – | – | – | – |
| NC(=O)c1ccc[n+]([C@@H]2O[C@H](COP(=O)([O-])OP(=O)(O)OC[C@H]3O[C@@H](n4cnc5c(N)ncnc54)[C@H](O)[C@@H]3O)[C@@H](O)[C@H]2O)c1 [nadide] | 92.3 | 89.7 | 99.9 | 90.5 | 113 | 110 | 113 | 92.1 | 99.2 | 99.8 | – | – | – | – | – | 101 | 95.9 | 97.9 | 101 | 111 | 0 | 0 | – | 0 | > 10 | > 10 | – | > 10 | 102 | 103 | 94 | 96.1 | 106 | 0 | > 10 |
| NCCC[C@H](N)C(=O)O [ornithine] | 97.2 | 94.7 | 101 | 101 | 100 | 97.3 | 112 | 94.7 | 97.2 | 91.8 | – | – | – | – | – | 100 | 93.5 | 99.1 | 96.8 | 104 | 0 | 0 | – | 0 | > 10 | > 10 | – | > 10 | 103 | 95.6 | 102 | 102 | 104 | 0 | > 10 |
| COC(=O)Nc1nc2cc([S+]([O-])c3ccccc3)ccc2[nH]1 (stereo not drawn) [oxfendazole] | 97 | 108 | 104 | 94.7 | 97.5 | 90.6 | 92.5 | 98.2 | 98.1 | 75.3 | 101 | 106 | 100 | 104 | 90.6 | 101 | 96.6 | 103 | 98.1 | 103 | 0 | 1.2 | 0 | 0 | > 10 | > 10 | > 10 | > 10 | – | – | – | – | – | – | – |
| O=C(CCCCCCC(=O)Nc1cccnc1)NO [pyroxamide] | 102 | 92.9 | 94.3 | 91.6 | 47.6 | 106 | 99.6 | 98.7 | 76.8 | 7.6 | 99.6 | 103 | 96.3 | 99.9 | 46 | 102 | 97.8 | 101 | 90 | 12.6 | 4.2 | 8.7 | 2.9 | 6.5 | 1.93 | 1.54 | 3.14 | 2.22 | – | – | – | – | – | – | – |
| O=C(/C=C\n1cnc(-c2cc(C(F)(F)F)cc(C(F)(F)F)c2)n1)NNc1cnccn1 [selinexor] | 97 | 87.9 | 89 | 50.4 | 44.2 | 108 | 99.2 | 49.6 | 31.9 | 24.5 | 98.9 | 102 | 81.9 | 42.4 | 24.3 | 97.1 | 89.9 | 75.8 | 12.7 | 7.6 | 10.4 | 19.9 | 12.9 | 18.8 | 0.248 | 0.0686 | 0.319 | 0.189 | 104 | 93.4 | 66 | 57 | 56.4 | 12.5 | – |
| Cc1ccnc(NS(=O)(=O)c2ccc(N)cc2)n1 [sulfamerazine] | 97 | 89.8 | 92 | 98.7 | 98.2 | 104 | 94.1 | 95.5 | 109 | 89.3 | 104 | 98.5 | 97.8 | 97.8 | 97.8 | 102 | 102 | 94.3 | 97.6 | 100 | 0 | 0 | 0 | 0 | > 10 | > 10 | > 10 | > 10 | – | – | – | – | – | – | – |
| O=C(NS(=O)(=O)c1ccc(Br)s1)c1ccc(Cl)cc1Cl [tasisulam] | 99.7 | 104 | 94.9 | 101 | 92 | 114 | 94.2 | 105 | 110 | 107 | – | – | – | – | – | 97.2 | 98.1 | 96 | 101 | 102 | 0 | 0 | – | 0 | > 10 | > 10 | – | > 10 | 96.2 | 104 | 97.6 | 95.4 | 100 | 0 | > 10 |
| NCCCC[C@H](NC(=O)[C@@H]1CCCN1C(=O)[C@@H]1CSSC[C@H](NC(=O)CNC(=O)CNC(=O)CN)C(=O)N[C@@H](Cc2ccc(O)cc2)C(=O)N[C@@H](Cc2ccccc2)C(=O)N[C@@H](CCC(N)=O)C(=O)N[C@@H](CC(N)=O)C(=O)N1)C(=O)NCC(N)=O [terlipressin] | 100 | 96.5 | 98 | 100 | 103 | 94.4 | 105 | 94.3 | 97.4 | 110 | 93.7 | 100 | 86.1 | 91.2 | 110 | – | – | – | – | – | 0 | 0 | 0 | – | > 10 | > 10 | > 10 | – | 93.9 | 92 | 102 | 95.8 | 96.4 | 0 | > 10 |
| NCCNCCNCCN [trientine] | 107 | 106 | 96.4 | 94.4 | 97.6 | 90.9 | 96.6 | 92.1 | 98 | 92.8 | – | – | – | – | – | 100 | 99.1 | 100 | 97.5 | 104 | 0 | 0 | – | 0 | > 10 | > 10 | – | > 10 | 89 | 101 | 99 | 98.7 | 99.9 | 0 | > 10 |

Source: the supplement of paper PMC13380429
